Calls of active or inactive are those of the source. No cut-off for these calls is given here.
Experiments:
[1] = system: LOX IMVI; assay: Growth inhibition of human LOXIMVI cells at 10 uM after 48 hrs by sulforhodamine B assay; type: functional; conditions: read-out: GI
[2] = system: SNB-75; assay: Growth inhibition of human SNB75 cells at 10 uM after 48 hrs by sulforhodamine B assay; type: functional; conditions: SNB-75, 48 h, read-out: GI
[3] = system: SNB-19; assay: Growth inhibition of human SNB19 cells at 10 uM after 48 hrs by sulforhodamine B assay; type: functional; conditions: SNB-19, 48 h, read-out: GI
[4] = system: SF-539; assay: Growth inhibition of human SF539 cells at 10 uM after 48 hrs by sulforhodamine B assay; type: functional; conditions: SF-539, 48 h, read-out: GI
[5] = system: SF-295; assay: Growth inhibition of human SF295 cells at 10 uM after 48 hrs by sulforhodamine B assay; type: functional
[6] = system: SF-268; assay: Growth inhibition of human SF268 cells at 10 uM after 48 hrs by sulforhodamine B assay; type: functional
[7] = system: KM12; assay: Growth inhibition of human KM12 cells at 10 uM after 48 hrs by sulforhodamine B assay; type: functional; conditions: KM12, 48 h, read-out: GI
[8] = system: HT-29; assay: Growth inhibition of human HT-29 cells at 10 uM after 48 hrs by sulforhodamine B assay; type: functional
[9] = system: HCC 2998; assay: Growth inhibition of human HCC2998 cells at 10 uM after 48 hrs by sulforhodamine B assay; type: functional
[10] = system: COLO 205; assay: Growth inhibition of human COLO205 cells at 10 uM after 48 hrs by sulforhodamine B assay; type: functional
[11] = system: NCI-H460; assay: Growth inhibition of human NCI-H460 cells at 10 uM after 48 hrs by sulforhodamine B assay; type: functional
[12] = system: NCI-H322M; assay: Growth inhibition of human NCI-H322M cells at 10 uM after 48 hrs by sulforhodamine B assay; type: functional
[13] = system: NCI-H226; assay: Growth inhibition of human NCI-H226 cells at 10 uM after 48 hrs by sulforhodamine B assay; type: functional
[14] = system: HOP-92; assay: Growth inhibition of human HOP92 cells at 10 uM after 48 hrs by sulforhodamine B assay; type: functional
[15] = system: HOP-62; assay: Growth inhibition of human HOP62 cells at 10 uM after 48 hrs by sulforhodamine B assay; type: functional; conditions: HOP-62, 48 h, read-out: GI
[16] = system: SR; assay: Growth inhibition of human SR cells at 10 uM after 48 hrs by sulforhodamine B assay; type: functional; conditions: read-out: GI
[17] = system: RPMI-8226; assay: Growth inhibition of human RPMI8226 cells at 10 uM after 48 hrs by sulforhodamine B assay; type: functional
[18] = system: MOLT-4; assay: Growth inhibition of human MOLT4 cells at 10 uM after 48 hrs by sulforhodamine B assay; type: functional; conditions: MOLT-4, 48 h, read-out: GI
[19] = system: K562; assay: Growth inhibition of human K562 cells at 10 uM after 48 hrs by sulforhodamine B assay; type: functional
[20] = system: HL-60(TB); assay: Growth inhibition of human HL-60(TB) cells at 10 uM after 48 hrs by sulforhodamine B assay; type: functional; conditions: HL-60, 48 h, read-out: GI
[21] = system: CCRF-CEM; assay: Growth inhibition of human CCRF-CEM cells at 10 uM after 48 hrs by sulforhodamine B assay; type: functional
[22] = biological target: Carbonic anhydrase 9 (Homo sapiens, UniProt Q16790); assay: Inhibition of human carbonic anhydrase 9 after 15 mins by stopped flow CO2 hydration assay
[23] = system: MDA-MB-468; assay: Growth inhibition of human MDA-MB-468 cells at 10 uM after 48 hrs by sulforhodamine B assay; type: functional
[24] = system: T47D; assay: Growth inhibition of human T47D cells at 10 uM after 48 hrs by sulforhodamine B assay; type: functional; conditions: read-out: GI
[25] = system: BT-549; assay: Growth inhibition of human BT549 cells at 10 uM after 48 hrs by sulforhodamine B assay; type: functional; conditions: BT-549, 48 h, read-out: GI
[26] = system: Hs-578T; assay: Growth inhibition of human Hs 578T cells at 10 uM after 48 hrs by sulforhodamine B assay; type: functional
[27] = system: MCF7; assay: Growth inhibition of human MCF7 cells at 10 uM after 48 hrs by sulforhodamine B assay; type: functional
[28] = system: DU-145; assay: Growth inhibition of human DU145 cells at 10 uM after 48 hrs by sulforhodamine B assay; type: functional
[29] = system: UO-31; assay: Growth inhibition of human UO31 cells at 10 uM after 48 hrs by sulforhodamine B assay; type: functional; conditions: UO-31, 48 h, read-out: GI
[30] = system: TK-10; assay: Growth inhibition of human TK10 cells at 10 uM after 48 hrs by sulforhodamine B assay; type: functional
[31] = system: RXF 393; assay: Growth inhibition of human RXF393 cells at 10 uM after 48 hrs by sulforhodamine B assay; type: functional
[32] = system: CAKI-1; assay: Growth inhibition of human CAKI-1 cells at 10 uM after 48 hrs by sulforhodamine B assay; type: functional
[33] = system: A498; assay: Growth inhibition of human A498 cells at 10 uM after 48 hrs by sulforhodamine B assay; type: functional; conditions: A498, 48 h, read-out: GI
[34] = system: 786-0; assay: Growth inhibition of human 786-0 cells at 10 uM after 48 hrs by sulforhodamine B assay; type: functional
[35] = system: SK-OV-3; assay: Growth inhibition of human SKOV3 cells at 10 uM after 48 hrs by sulforhodamine B assay; type: functional
[36] = system: OVCAR-8; assay: Growth inhibition of human OVCAR8 cells at 10 uM after 48 hrs by sulforhodamine B assay; type: functional
[37] = system: OVCAR-5; assay: Growth inhibition of human OVCAR5 cells at 10 uM after 48 hrs by sulforhodamine B assay; type: functional; conditions: OVCAR-5, 48 h, read-out: GI
[38] = system: OVCAR-4; assay: Growth inhibition of human OVCAR4 cells at 10 uM after 48 hrs by sulforhodamine B assay; type: functional
[39] = system: OVCAR-3; assay: Growth inhibition of human OVCAR3 cells at 10 uM after 48 hrs by sulforhodamine B assay; type: functional
[40] = system: IGROV-1; assay: Growth inhibition of human IGROV1 cells at 10 uM after 48 hrs by sulforhodamine B assay; type: functional
[41] = system: UACC-62; assay: Growth inhibition of human UACC62 cells at 10 uM after 48 hrs by sulforhodamine B assay; type: functional
[42] = system: UACC-257; assay: Growth inhibition of human UACC257 cells at 10 uM after 48 hrs by sulforhodamine B assay; type: functional
[43] = system: SK-MEL-5; assay: Growth inhibition of human SK-MEL-5 cells at 10 uM after 48 hrs by sulforhodamine B assay; type: functional
[44] = system: SK-MEL-28; assay: Growth inhibition of human SK-MEL-28 cells at 10 uM after 48 hrs by sulforhodamine B assay; type: functional, cell-based
[45] = system: SK-MEL-2; assay: Growth inhibition of human SK-MEL-2 cells at 10 uM after 48 hrs by sulforhodamine B assay; type: functional
[46] = system: MDA-MB-435; assay: Growth inhibition of human MDA-MB-435 cells at 10 uM after 48 hrs by sulforhodamine B assay; type: functional

NS(=O)(=O)c1cnccc1N1CCN(Cc2ccc3c(c2)OCO3)CC1
inhibition of growth at 10 µM [1]: 8%
inhibition of growth at 10 µM [2]: 9%
inhibition of growth at 10 µM [3]: 3%
inhibition of growth at 10 µM [4]: 2%
growth inhibition (GI) [5]: inactive
growth inhibition (GI) [6]: inactive
inhibition of growth at 10 µM [7]: 1%
growth inhibition (GI) [8]: inactive
growth inhibition (GI) [9]: inactive
growth inhibition (GI) [10]: inactive
growth inhibition (GI) [11]: inactive
growth inhibition (GI) [12]: inactive
growth inhibition (GI) [13]: inactive
growth inhibition (GI) [14]: inactive
inhibition of growth at 10 µM [15]: 5%
inhibition of growth at 10 µM [16]: 9%
growth inhibition (GI) [17]: inactive
inhibition of growth at 10 µM [18]: 5%
growth inhibition (GI) [19]: inactive
inhibition of growth at 10 µM [20]: 7%
growth inhibition (GI) [21]: inactive
Ki [22]: 89.4 nM
growth inhibition (GI) [23]: inactive
inhibition of growth at 10 µM [24]: 6%
inhibition of growth at 10 µM [25]: 7%
growth inhibition (GI) [26]: inactive
growth inhibition (GI) [27]: inactive
growth inhibition (GI) [28]: inactive
inhibition of growth at 10 µM [29]: 13%
growth inhibition (GI) [30]: inactive
growth inhibition (GI) [31]: inactive
growth inhibition (GI) [32]: inactive
inhibition of growth at 10 µM [33]: 10%
growth inhibition (GI) [34]: inactive
growth inhibition (GI) [35]: inactive
growth inhibition (GI) [36]: inactive
inhibition of growth at 10 µM [37]: 2%
growth inhibition (GI) [38]: inactive
growth inhibition (GI) [39]: inactive
growth inhibition (GI) [40]: inactive
growth inhibition (GI) [41]: inactive
growth inhibition (GI) [42]: inactive
growth inhibition (GI) [43]: inactive
growth inhibition (GI) [44]: inactive
growth inhibition (GI) [45]: inactive
growth inhibition (GI) [46]: inactive
